In PMC9981719, “A novel designed membrane-active peptide for the control of foodborne Salmonella enterica serovar Typhimurium” (Scientific Reports, 2023):
In brackets after ≈: the same amount, converted by molar mass. Like-named read-outs stand apart in the source and are kept apart here. Where no end group is shown, it is not given here.

Columns and labels:
[1] = test system: Salmonella Typhimurium ATCC 13311; format: cell-based, Salmonella enterica serovar Typhimurium
Text: (§1) All tests were done in triplicate.

[2] = test system: Acinetobactero baumanii MT strain; format: cell-based; details: for MIC: 24 h
Text: as §1

[3] = test system: Bacillus cereus ATCC 11778; format: cell-based
Text: as §1

[4] = test system: Listeria monocytogenes 10403s; format: cell-based; details: for MIC: 24 h
Text: as §1

[5] = test system: Pseudomonas aeruginosa ATCC 27853; format: cell-based
Text: as §1

[6] = test system: Shigella sonnei ATCC11060; format: cell-based; details: triplicate; for MIC: broth microdilution in MHB, 37 °C, 24 h; for MBC: colony count on TSA from non-turbid MIC wells
Text: as §1

[7] = test system: Staphylococcus aureus ATCC 25923; format: cell-based; details: for MBC: ATCC 25923, 18 h; for MIC: ATCC 25923, 24 h
Text: as §1

[8] = test system: Staphylococcus epidermidis ATCC 12228; format: cell-based; details: for MBC: ATCC 12228, 18 h
Text: as §1

[9] = test system: all Gram-negative strains; experiment: Geometric mean of MICs and therapeutic index, Gram-negative strains; format: cell-based; details: 4 Gram-negative strains
Text: as §1

[10] = test system: all Gram-positive strains; experiment: Geometric mean of MICs and therapeutic index, Gram-positive strains; format: cell-based; details: 4 Gram-positive strains
Text: as §1

[11] = test system: L929 mouse fibroblast cells; experiment: In vitro cytotoxicity, MTT assay; format: cell-based; details: 0.98–250 µg/ml, 24 h
Description: The cytotoxicity of A11 was evaluated by the 3-(4,5 dimethylthiazol-2-yl)-2,5-diphenyltetrazolium bromide (MTT) assay. L929 mouse fibroblast cells were cultured in Dulbecco's Modified Eagle Medium (DMEM) supplemented with 1% (v/v) of 100 IU/ml penicillin/streptomycin and 10% (v/v) fetal bovine serum (FBS). The cells were maintained in an air atmosphere containing the 5% CO2 under high humidity at 37 °C. L929 cell lines were seeded into a sterile 96-well plate (1 × 10^4 cells/well) then incubated overnight and treated with different concentrations of A11 (0.98–250 µg/ml) for 24 h. Media were removed, and cultured cells were incubated with 100 µl of MTT solution (4 mg/ml) for 4 h at 37 °C. After removal of MTT solution, the formed formazan was dissolved in 100 µl DMSO. Absorbance was measured by microplate reader at 570 nm; untreated cells served as negative control and melittin-treated cells as a positive control. Cell viability was determined following this equation: Cell viability%=ODTreated/ODControl×100

[12] = test system: panel of human pathogenic bacterial strains; details: summary over all tested strains of Table 1
Description: Four Gram-negative bacteria including Salmonella enterica serovar Typhimurium (S. Typhimurium) ATCC 13311 and 16 drug-resistant S. enterica isolates (S. Typhimurium and monophasic variant 4,5,12:i:-), and four Gram-positive bacteria (Staphylococcus aureus ATCC 25923, Staphylococcus epidermidis ATCC 12228, Bacillus cereus ATCC 11778, and Listeria monocytogenes 10403s) were used as test microorganisms. […] All bacterial strains were cultured in a proper medium at 37 °C for 18 h (Table 1).
The minimum inhibitory concentration (MIC) of each peptide was evaluated by broth microdilution assay according to a modification described by the National Committee for Clinical Laboratory Standards (NCCLS)[22]. Mid-logarithmic phase bacterial cells were adjusted to an OD620 of 0.05 in Mueller–Hinton broth (MHB), a universal medium for antibacterial susceptibility testing[23]. Then, 50 µl of bacterial solution was incubated with 50 µl of two-fold serially diluted peptide (0.98–250 µg/ml in PBS) at 37 °C for 24 h with continuous shaking. […] The minimal bactericidal concentration (MBC) of each peptide was determined using a colony count assay. Fifty microliter aliquots of the mixture from each non-turbid well (no growth) from the MIC experiment was spread on Tryptic soy agar (TSA) and cultured overnight at 37 °C. […]

[13] = broth microdilution in MHB, 37 °C, triplicate
[14] = colony count on TSA from non-turbid MIC wells, triplicate
[15] = broth microdilution in MHB, 37 °C, 24 h, triplicate

Molecule	MBC ([1]; ATCC 13311, 18 h)	MIC ([1]; ATCC 13311, 24 h)	MBC ([2]; 18 h)	MIC [2]	MBC ([3]; ATCC 11778, 18 h)	MIC ([3]; ATCC 11778, 24 h)	MBC ([4]; 10403s, 18 h)	MIC ([4]; 10403s)	MBC ([5]; ATCC 27853, 18 h)	MIC ([5]; ATCC 27853, 24 h)	MIC [6] [µg/mL]	MBC [6] [µg/mL]	MBC [7]	MIC [7]	MBC [8]	MIC ([8]; ATCC 12228, 24 h)	other results
GVKKVAHKVVKIGRKVAW-NH2 [A6]	62.5 (62.5) µg/ml	62.5 (62.5) µg/ml	31.25 (31.25) µg/ml	31.25 (31.25) µg/ml	> 250 (> 250) µg/ml	> 250 (> 250) µg/ml	250 (> 250) µg/ml	250 (> 250) µg/ml	250 µg/mL	125 µg/mL	62.5	125	> 250 (> 250) µg/ml	> 250 (> 250) µg/ml	> 250 (> 250) µg/ml	> 250 (> 250) µg/ml	
CC[C@H](C)[C@H](NC(=O)CN)C(=O)NCC(=O)N[C@@H](C)C(=O)N[C@H](C(=O)N[C@@H](CC(C)C)C(=O)N[C@@H](CCCCN)C(=O)N[C@H](C(=O)N[C@@H](CC(C)C)C(=O)N[C@H](C(=O)N[C@H](C(=O)NCC(=O)N[C@@H](CC(C)C)C(=O)N1CCC[C@H]1C(=O)N[C@@H](C)C(=O)N[C@@H](CC(C)C)C(=O)N[C@H](C(=O)N[C@@H](CO)C(=O)N[C@@H](Cc1c[nH]c2ccccc12)C(=O)N[C@H](C(=O)N[C@@H](CCCCN)C(=O)N[C@@H](CCCNC(=N)N)C(=O)N[C@@H](CCCCN)C(=O)N[C@@H](CCCNC(=N)N)C(=O)N[C@@H](CCC(N)=O)C(=O)N[C@@H](CCC(N)=O)C(N)=O)[C@@H](C)CC)[C@@H](C)CC)[C@@H](C)O)[C@@H](C)O)C(C)C)C(C)C [Melittin, reference compound]											3.91 (≈ 1.37 µM)	7.81 (≈ 2.74 µM)					MIC ([1]; broth microdilution in MHB, 37 °C, 24 h, visible inspection, triplicate): 3.91 (3.91) µg/ml; MBC ([1]; colony count on TSA from non-turbid MIC wells, overnight 37 °C, triplicate): 3.91 (3.91) µg/ml; MIC [2, 13]: 7.81 (7.81) µg/ml; MBC [2, 14]: 7.81 (7.81) µg/ml; MIC [3, 15]: 3.91 µg/mL (≈ 1.37 µM); MBC [3, 14]: 7.81 µg/mL (≈ 2.74 µM); MIC [4, 13]: 3.91 (3.91) µg/ml; MBC [4, 14]: 3.91 (3.91) µg/ml; MIC [5, 15]: 15.63 (15.63) µg/ml; MBC [5, 14]: 15.63 (15.63) µg/ml; MIC [8, 15]: 3.91 (3.91) µg/ml; GM (Gr.- strains), geometric mean of MIC values from all Gram-negative strains [9]: 6.8 µg/mL; GM (Gr. + strains), geometric mean of MIC values from all Gram-positive strains [10]: 3.91 µg/mL; cytotoxicity toward L929 cells (cell viability, MTT) [11]: strongly cytotoxic
GNPKVAHCASQIGRSTAWGAVSGA-NH2 [A0, acidocin J1132β, reference compound]	> 250 (> 250) µg/ml	> 250 (> 250) µg/ml	> 250 (> 250) µg/ml	> 250 (> 250) µg/ml	> 250 (> 250) µg/ml	> 250 (> 250) µg/ml	> 250 (> 250) µg/ml	> 250 (> 250) µg/ml	> 250 (> 250) µg/ml	> 250 (> 250) µg/ml			> 250 (> 250) µg/ml	> 250 (> 250) µg/ml	> 250 (> 250) µg/ml	> 250 (> 250) µg/ml	MIC over the tested bacteria [12]: > 250 µg/mL
GVKKVARKVVKIGRKVAR-NH2 [A9]	62.5 (62.5) µg/ml	62.5 (62.5) µg/ml	125 µg/mL		> 250 (> 250) µg/ml	> 250 (> 250) µg/ml	250 (> 250) µg/ml	250 (> 250) µg/ml	250 (250) µg/ml	250 (250) µg/ml			> 250 (> 250) µg/ml	> 250 (> 250) µg/ml	> 250 µg/mL	62.5 µg/mL	
GVKKVAHKVVKIGRKVAWGAVSGV-NH2 [A4]	31.25 (31.25) µg/ml	31.25 (31.25) µg/ml	31.25 µg/mL	15.63 µg/mL	> 250 (> 250) µg/ml	> 250 (> 250) µg/ml	250 (> 250) µg/ml	250 (> 250) µg/ml	250 (250) µg/ml	250 (250) µg/ml			> 250 (> 250) µg/ml	> 250 (> 250) µg/ml	250 (250) µg/ml	250 (250) µg/ml	
